The values below come from US10131669B2, “Pyrazolopyrimidine compounds” (Pfizer Inc., priority 2014, dated 2018).

Molecules are shown by their SMILES. Where a name gives a salt, the structure may show the parent alone. Bounds are passed on as bounds.

Holding throughout (format): biochemical
One assay addresses T1, Human PDE4A3 (Homo sapiens, UniProt P27815).
T1 construct: His6 (N); FLAG (C); made in house; host or cells: insect cells (baculovirus, pFastBac)
Description: PDE4A3 Scintillation Proximity Assay (SPA), inhibition of enzyme activity. To be noted: geometric mean of 2-7 determinations unless otherwise indicated (b: ≥8 determinations; c: single determination), 1 μM cAMP, 30 min at 25° C., read-out: Human PDE4A FL. From the text:
(§1) Human PDE4A3 coding sequence (amino acids 2 to 825 from the sequence with accession number NP_001104779) was cloned into the baculovirus expression vector pFastBac (Invitrogen) engineered to include an N-terminal His6 affinity tag and a c-terminal FLAG affinity tag to aid in purification. The recombinant Bacmid was isolated and used to transfect insect cells to generate a viral stock. To generate cell paste for purification, insect cells were infected with the virus stock and cells were harvested 72 hours after infection. Insect cell paste was lysed and after centrifugation, the supernatant was batch bound to Ni-NTA agarose (GE Healthcare) and eluted with 250 mM imidazole. This eluate was diluted with FLAG buffer (50 mM Tris HCL pH 7.5, 100 mM NaCl, 5% Glycerol, 1 mM TCEP with protease inhibitors) and batch bound to ant-FLAG M2 agarose (Sigma) overnight at 4° C. The agarose was packed into a column, washed with buffer and eluted with buffer containing elute using 250 ug/ml Flag-peptide. Fractions were analyzed using SDS-PAGE Coomassie blue staining and pooled based on purity. Pooled fractions were chromatographed on a S200 120 ml column (GE Healthcare) in 50 mM Tris HCL pH 7.5, 150 mM NaCl, 10% Glycerol, 2 mM TCEP with protease inhibitors. PDE4A3 fractions were analyzed by SDS-PAGE Coomassie blue staining, pooled based on purity, dialyzed against 50 mM Tris HCL pH 7.5, 100 mM NaCl, 20% Glycerol, 2 mM TCEP, frozen and stored at −80° C.
(§2) The PDE4A3, PDE4B1, PDE4C1 and PDE4D3 assays use the Scintillation Proximity Assay (SPA) technology to measure the inhibition of human recombinant […], PDE4C1, and PDE4D3 enzyme activity by compounds in vitro. The PDE4A1, PDE4B3, PDE4C1, and PDE4D3 assays are run in parallel using identical parameters, except for the concentration of enzyme (80 pM PDE4A3, 40 pM PDE4B3, 40 pM PDE4C1 and 10 pM PDE4D). The assays are performed in a 384-well format with 50 uL assay buffer (50 mM TRIS pH7.5; 1.3 mM MgCl2; 0.01% Brij) containing enough PDE4A3, PDE4B1, PDE4C1, and PDE4D to convert ˜20% of substrate (1 μM cAMP consisting of 20 nM 3H-cAMP+[…] cold cAMP) and a range of inhibitors. Reactions are incubated for 30 min at 25° C. The addition of 20 uL of 8 mg/ml yitrium silicate SPA beads (Perkin Elmer) stops the reaction. The plates are sealed (TopSeal, Perkin Elmer) and the beads are allowed to settle for 8 hrs, after which they are read on the Trilux Microbeta overnight.
On the technique in general: SPA uses beads or plates that emit light when radiolabelled molecules are held near them.

For the next assay, the target named is T2, Human PDE4B1 (Homo sapiens, UniProt Q07343, S133E/S654A/S659A/S661A).
T2 construct: His6 (N); thrombin cleavage site (N); made in house; host or cells: insect cells (baculovirus, pFastBac)
T2 sequence (Q07343 122-736 S133E/S654A/S659A/S661A): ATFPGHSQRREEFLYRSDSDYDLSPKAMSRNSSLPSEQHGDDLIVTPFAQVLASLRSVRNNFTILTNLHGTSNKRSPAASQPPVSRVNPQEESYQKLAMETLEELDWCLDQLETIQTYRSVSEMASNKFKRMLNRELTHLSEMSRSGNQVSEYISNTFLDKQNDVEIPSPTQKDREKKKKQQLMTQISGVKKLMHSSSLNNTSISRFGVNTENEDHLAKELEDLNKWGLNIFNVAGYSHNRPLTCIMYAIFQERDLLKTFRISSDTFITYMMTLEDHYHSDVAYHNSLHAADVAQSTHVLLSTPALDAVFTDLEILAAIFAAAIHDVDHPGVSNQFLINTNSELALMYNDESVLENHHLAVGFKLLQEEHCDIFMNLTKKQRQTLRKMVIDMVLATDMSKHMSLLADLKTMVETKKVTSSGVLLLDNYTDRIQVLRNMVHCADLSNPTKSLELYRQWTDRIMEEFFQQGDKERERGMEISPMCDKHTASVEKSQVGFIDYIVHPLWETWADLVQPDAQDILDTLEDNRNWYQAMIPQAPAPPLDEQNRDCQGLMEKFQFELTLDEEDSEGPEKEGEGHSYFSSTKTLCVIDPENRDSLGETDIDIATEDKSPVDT
Nature of the assay: PDE4B1 Scintillation Proximity Assay (SPA), inhibition of enzyme activity. As to conditions: geometric mean of 2-7 determinations unless otherwise indicated (b: ≥8 determinations; c: single determination); 1 μM cAMP, 30 min at 25° C.; read-out: Human PDE4B FL; IC50. How it is done:
The recombinant Bacmid was isolated and used to transfect insect cells to generate a viral stock. To generate cell paste for purification, insect cells were infected with the virus stock and cells were harvested 72 hours after infection as described in Seeger, T. F. et al., Brain Research 985 (2003) 113-126. Insect cell paste was lysed and after centrifugation, the supernatant was chromatographed on Ni-NTA agarose (Qiagen) as described in Seeger, T. F. et al., Brain Research 985 (2003) 113-126. Ni-NTA agarose eluting fractions containing PDE4 were pooled, diluted with Q buffer A (20 mM Tris HCl pH 8, 5% glycerol, 1 mM TCEP) to reduce NaCl to ˜100 mM and loaded on a Source 15Q (GE Healthcare) column. After washing with Q buffer A/10% buffer B to baseline, PDE4D was eluted with a gradient from 10% to 60% of Buffer B (20 mM Tris HCl pH 8, 1 M NaCl, 5% glycerol, 1 mM TCEP). PDE4D fractions were analyzed by SDS-PAGE Coomassie blue staining, pooled based on purity, frozen and stored at −80° C.
as §2

A further assay has as its target T3, Human PDE4C1 (Homo sapiens, UniProt Q08493).
T3 construct: His6 (N); FLAG (C); made in house; host or cells: insect cells (baculovirus, pFastBac)
Nature of the assay: PDE4C1 Scintillation Proximity Assay (SPA), inhibition of enzyme activity. To be noted: geometric mean of 2-7 determinations unless otherwise indicated (b: ≥8 determinations; c: single determination), 1 μM cAMP, 30 min at 25° C., read-out: Human PDE4C FL. As to the method: as §1, with “The” for “Human PDE4A3 coding sequence (amino acids 2 to 825 from the sequence with accession number NP_001104779) was cloned into the baculovirus expression vector pFastBac (Invitrogen) engineered to include an N-terminal His6 affinity tag and a c-terminal FLAG affinity tag to aid in purification. The”, “PDE4C1” for “PDE4A3”
as §2

The target of the next assay is T4, human PDE4D3 (Homo sapiens, UniProt Q08499).
T4 construct: His6 (C); made in house; host or cells: insect cells (baculovirus, pFastBac)
T4 sequence (Q08499 186-808): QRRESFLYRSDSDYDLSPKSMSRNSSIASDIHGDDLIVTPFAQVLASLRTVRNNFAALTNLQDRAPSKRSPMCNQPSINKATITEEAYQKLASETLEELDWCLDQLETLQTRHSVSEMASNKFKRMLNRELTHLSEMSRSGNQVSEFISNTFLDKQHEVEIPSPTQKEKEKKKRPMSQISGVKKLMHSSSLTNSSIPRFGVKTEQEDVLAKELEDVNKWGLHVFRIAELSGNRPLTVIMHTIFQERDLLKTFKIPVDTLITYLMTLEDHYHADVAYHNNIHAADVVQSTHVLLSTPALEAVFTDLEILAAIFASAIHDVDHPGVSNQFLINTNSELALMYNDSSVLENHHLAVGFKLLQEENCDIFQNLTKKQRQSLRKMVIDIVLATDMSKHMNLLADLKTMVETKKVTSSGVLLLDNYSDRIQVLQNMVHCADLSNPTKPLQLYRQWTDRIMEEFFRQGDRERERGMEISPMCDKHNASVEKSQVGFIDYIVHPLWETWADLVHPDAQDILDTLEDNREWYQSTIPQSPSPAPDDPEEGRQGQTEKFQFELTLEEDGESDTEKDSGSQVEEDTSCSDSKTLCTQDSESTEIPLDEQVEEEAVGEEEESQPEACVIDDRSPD
Description: PDE4D3 Scintillation Proximity Assay (SPA), inhibition of enzyme activity. To be noted: geometric mean of 2-7 determinations unless otherwise indicated (b: ≥8 determinations; c: single determination); 1 μM cAMP, 30 min at 25° C.; read-out: Human PDE4D FL; IC50. As to the method:
The recombinant Bacmid was isolated and used to transfect insect cells to generate a viral stock. To generate cell paste for purification, insect cells were infected and cells were harvested 72 hours after infection. Insect cell paste was lysed and after centrifugation, the supernatant was chromatographed on Ni-NTA agarose (Qiagen) as described in Seeger, T. F. et al., Brain Research 985 (2003) 113-126. Ni-NTA agarose eluting fractions containing PDE4 were pooled, diluted with Q Buffer A (50 mM Tris HCl pH 8, 4% glycerol, 100 mM NaCl, 1 mM TCEP, Protease inhibitors EDTA-free (Roche)) to reduce NaCl to ˜200 mM, and loaded on a Q Sepharose (GE Healthcare) column. After washing with Q buffer A to baseline, PDE4D was eluted with a gradient from 10% to 60% of Buffer B (50 mM Tris HCl pH 8, 1 M NaCl, 4% glycerol, 1 mM TCEP). PDE4D fractions were analyzed by SDS-PAGE Coomassie blue staining, pooled based on purity, frozen and stored at −80° C.
as §2

T3 sequence (Q08493 2-712): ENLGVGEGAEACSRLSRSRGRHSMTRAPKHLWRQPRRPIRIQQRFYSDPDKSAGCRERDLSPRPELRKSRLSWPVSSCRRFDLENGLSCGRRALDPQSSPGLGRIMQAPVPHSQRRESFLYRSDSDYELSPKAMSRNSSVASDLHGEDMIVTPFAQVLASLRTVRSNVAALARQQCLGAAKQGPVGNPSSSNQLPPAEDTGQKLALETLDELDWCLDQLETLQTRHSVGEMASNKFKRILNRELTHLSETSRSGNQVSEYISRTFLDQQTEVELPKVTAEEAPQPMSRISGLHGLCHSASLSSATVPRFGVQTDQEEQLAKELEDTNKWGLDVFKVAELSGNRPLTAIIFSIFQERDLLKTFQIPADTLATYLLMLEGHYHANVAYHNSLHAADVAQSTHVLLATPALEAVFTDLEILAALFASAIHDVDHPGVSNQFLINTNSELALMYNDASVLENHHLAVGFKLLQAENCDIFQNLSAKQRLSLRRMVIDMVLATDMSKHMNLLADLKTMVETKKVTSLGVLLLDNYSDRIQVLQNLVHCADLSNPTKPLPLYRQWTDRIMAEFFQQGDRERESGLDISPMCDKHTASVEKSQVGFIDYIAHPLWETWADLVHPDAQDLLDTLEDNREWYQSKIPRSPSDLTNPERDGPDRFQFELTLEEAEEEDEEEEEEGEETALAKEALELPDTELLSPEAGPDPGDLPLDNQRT
T1 sequence (P27815 2-825 isoform P27815-6): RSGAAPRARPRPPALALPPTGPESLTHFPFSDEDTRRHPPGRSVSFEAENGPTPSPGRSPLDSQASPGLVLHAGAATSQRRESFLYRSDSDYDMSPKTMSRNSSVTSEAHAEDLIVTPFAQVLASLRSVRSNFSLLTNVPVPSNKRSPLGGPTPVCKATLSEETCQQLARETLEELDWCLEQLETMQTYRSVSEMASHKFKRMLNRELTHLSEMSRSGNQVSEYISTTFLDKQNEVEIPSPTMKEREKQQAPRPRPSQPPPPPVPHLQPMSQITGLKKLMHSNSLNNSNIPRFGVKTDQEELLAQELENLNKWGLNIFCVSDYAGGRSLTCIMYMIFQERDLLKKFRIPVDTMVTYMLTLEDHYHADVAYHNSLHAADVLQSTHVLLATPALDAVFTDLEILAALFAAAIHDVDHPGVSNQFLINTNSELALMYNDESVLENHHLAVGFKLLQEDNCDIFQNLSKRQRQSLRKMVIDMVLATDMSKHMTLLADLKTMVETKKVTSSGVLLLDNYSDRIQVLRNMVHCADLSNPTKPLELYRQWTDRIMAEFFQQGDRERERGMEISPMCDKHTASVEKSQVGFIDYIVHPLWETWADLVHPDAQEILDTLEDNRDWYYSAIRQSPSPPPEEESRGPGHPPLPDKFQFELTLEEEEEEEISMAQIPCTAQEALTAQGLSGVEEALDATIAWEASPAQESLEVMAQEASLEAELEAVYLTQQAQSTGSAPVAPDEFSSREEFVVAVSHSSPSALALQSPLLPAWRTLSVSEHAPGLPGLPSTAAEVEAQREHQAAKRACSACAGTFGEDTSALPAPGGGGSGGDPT

`Cc1cc(C#N)c(F)cc1-c1c(C(=O)NC2CC2)nn2cccnc12` [Example 23, 3-(4-cyano-5-fluoro-2-methylphenyl)-N-cyclopropylpyrazolo[1,5-a]pyrimidine-2-carboxamide]: the IC50 at Human PDE4A3 was 8.42 nM; on Human PDE4B1, 25.9 nM; on Human PDE4C1, 39.4 nM; at human PDE4D3, 442 nM.

On to `Cc1cc(Cl)c(F)cc1-c1c(C(=O)NC2CCC2)nn2cccnc12` [Example 24, 3-(4-chloro-5-fluoro-2-methylphenyl)-N-cyclobutylpyrazolo[1,5-a]pyrimidine-2-carboxamide], for which the IC50 on Human PDE4A3 was 8.53 nM; at Human PDE4B1 it was 35.4 nM; at Human PDE4C1 it was 44 nM; on human PDE4D3, 606 nM.

For `Cc1cc(Cl)c(F)cc1-c1c(C(=O)NC2CC2)nn2cccnc12` [Example 25, 3-(4-chloro-5-fluoro-2-methylphenyl)-N-cyclopropylpyrazolo[1,5-a]pyrimidine-2-carboxamide], the IC50 on Human PDE4A3 is 5.35 nM; on Human PDE4B1, 9.61 nM; at Human PDE4C1, 17.4 nM; on human PDE4D3 it was 283 nM.

As to `CC(C)NC(=O)c1nn2cccnc2c1-c1ccc(Cl)cc1` [Example 26, 3-(4-chlorophenyl)-N-(propan-2-yl)pyrazolo[1,5-a]pyrimidine-2-carboxamide], the IC50 on Human PDE4A3 stood at 411 nM; on Human PDE4B1, 488 nM; on Human PDE4C1, 626 nM; at human PDE4D3, 4910 nM.

Turning to `O=C(NC12CC(C1)C2)c1nn2cccnc2c1-c1ccc(Cl)cc1` [Example 27, N-(bicyclo[1.1.1]pent-1-yl)-3-(4-chlorophenyl)pyrazolo[1,5-a]pyrimidine-2-carboxamide], the IC50 at Human PDE4A3 was determined as 55.8 nM; at Human PDE4B1, 124 nM; on Human PDE4C1 it was 217 nM; at human PDE4D3, 6200 nM.

As to `O=C(N[C@@H]1C[C@@H]1F)c1nn2cccnc2c1-c1ccc(Cl)c(F)c1` [Example 28, 3-(4-chloro-3-fluorophenyl)-N-[(1R,2S)-2-fluorocyclopropyl]pyrazolo[1,5-a]pyrimidine-2-carboxamide], the IC50 on Human PDE4A3 came out at 14.4 nM; on Human PDE4B1, 3.7 nM; on Human PDE4C1, 19.9 nM; on human PDE4D3, 140 nM.

Take `O=C(NC1CC1)c1nn2cccnc2c1-c1cccc(Cl)c1` [Example 31, 3-(3-chlorophenyl)-N-cyclopropylpyrazolo[1,5-a]pyrimidine-2-carboxamide, hydrochloride salt]: the IC50 was determined as 36.2 nM at Human PDE4A3, 51 nM on Human PDE4B1, 106 nM on Human PDE4C1 and 2120 nM at human PDE4D3.

Regarding `O=C(NC1CC1)c1nn2cccnc2c1-c1cc(F)c(Cl)c(F)c1` [Example 33, 3-(4-chloro-3,5-difluorophenyl)-N-cyclopropylpyrazolo[1,5-a]pyrimidine-2-carboxamide, hydrochloride salt], the IC50 on Human PDE4A3 worked out at 92.6 nM; on Human PDE4B1 it was 3.3 nM; on Human PDE4C1, 170 nM; at human PDE4D3, 408 nM.

For the compound `CC1CC1NC(=O)c1nn2cccnc2c1-c1ccc(Cl)cc1` (stereo not shown) [Example 34, 3-(4-chlorophenyl)-N-(2-methylcyclopropyl)pyrazolo[1,5-a]pyrimidine-2-carboxamide], the IC50 was 120 nM on Human PDE4A3, 138 nM at Human PDE4B1, 449 nM on Human PDE4C1 and above 12300 nM at human PDE4D3.

Consider `CN(C(=O)c1nn2cccnc2c1-c1ccc(Cl)cc1)C1CC1` [Example 35, 3-(4-chlorophenyl)-N-cyclopropyl-N-methylpyrazolo[1,5-a]pyrimidine-2-carboxamide, hydrochloride salt], for which the IC50 is 1110 nM at Human PDE4A3, 1860 nM at Human PDE4B1, 710 nM on Human PDE4C1 and above 30000 nM at human PDE4D3.

`O=C(NC1(C(F)(F)F)CC1)c1nn2cccnc2c1-c1ccc(Cl)cc1` [Example 36, 3-(4-chlorophenyl)-N-[1-(trifluoromethyl)cyclopropyl]pyrazolo[1,5-a]pyrimidine-2-carboxamide, hydrochloride salt]: the IC50 is 67.2 nM on Human PDE4A3, 452 nM at Human PDE4B1, 452 nM at Human PDE4C1 and above 25200 nM on human PDE4D3.

Regarding `O=C(NC1CC1(F)F)c1nn2cccnc2c1-c1ccc(Cl)c(F)c1` (stereo not shown) [Example 39, 3-(4-chloro-3-fluorophenyl)-N-(2,2-difluorocyclopropyl)pyrazolo[1,5-a]pyrimidine-2-carboxamide], the IC50 on Human PDE4A3 turned out to be 23.2 nM; on Human PDE4B1, 12.9 nM; at Human PDE4C1, 66.3 nM; on human PDE4D3 it was 300 nM.

`COc1cc(-c2c(C(=O)NC3CC3)nn3cccnc23)ccn1` [Example 42, N-cyclopropyl-3-(2-methoxypyridin-4-yl)pyrazolo[1,5-a]pyrimidine-2-carboxamide]: the IC50 is 212 nM on Human PDE4A3, 474 nM at Human PDE4B1, 1190 nM at Human PDE4C1 and above 18400 nM on human PDE4D3.
